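Each compound was tested at five concentrations against cells in 96-well plates for 48 hours. The concentration for 50% growth inhibition is given as GI50.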 The source made the active and inactive calls. Rule as the data show it: active = GI50 up to about 1.1 µM and inactive = higher.
Columns and labels:
Assay in all cases: NCI tumour cell line growth inhibition, 48 h
U-251 = system: U-251
786-0 = system: 786-0
HOP-92 = system: HOP-92
SK-OV-3 = system: SK-OV-3
NCI-H23 = system: NCI-H23
MOLT-4 = system: MOLT-4
HOP-62 = system: HOP-62
OVCAR-8 = system: OVCAR-8
NCI-H522 = system: NCI-H522
SK-MEL-5 = system: SK-MEL-5
HCC 2998 = system: HCC 2998
NCI-H460 = system: NCI-H460
OVCAR-5 = system: OVCAR-5
IGROV-1 = system: IGROV-1
LOX IMVI = system: LOX IMVI
SW-620 = system: SW-620
UACC-257 = system: UACC-257
MDA-N = system: MDA-N
HL-60 = system: HL-60

Row | SMILES | GI50 (U-251) | GI50 (786-0) | GI50 (HOP-92) | GI50 (SK-OV-3) | GI50 (NCI-H23) | GI50 (MOLT-4) | GI50 (HOP-62) | GI50 (OVCAR-8) | GI50 (NCI-H522) | GI50 (SK-MEL-5) | GI50 (HCC 2998) | GI50 (NCI-H460) | GI50 (OVCAR-5) | GI50 (IGROV-1) | GI50 (LOX IMVI) | GI50 (SW-620) | GI50 (UACC-257) | GI50 (MDA-N) | GI50 (HL-60)
1 | O/N=C1/COC(C(F)(F)F)(C(F)(F)F)C1 | > 100 µM (inactive) | > 100 µM (inactive) | > 100 µM (inactive) | > 100 µM (inactive) | > 100 µM (inactive) | > 100 µM (inactive) | > 100 µM (inactive) | > 100 µM (inactive) | > 100 µM (inactive) | > 100 µM (inactive) | > 100 µM (inactive) | > 100 µM (inactive) | > 100 µM (inactive) | > 100 µM (inactive) | > 100 µM (inactive) | > 100 µM (inactive) | > 100 µM (inactive) |  | 
2 | Nc1nc(-c2ccccc2)cc(-c2ccc(F)cc2)c1-c1ccc(Cl)cc1 | > 100 µM (inactive) | 88.3 µM (inactive) |  | > 100 µM (inactive) | > 100 µM (inactive) | 5.57 µM (inactive) | 32.6 µM (inactive) | > 100 µM (inactive) |  | > 100 µM (inactive) | > 100 µM (inactive) | 31.3 µM (inactive) | > 100 µM (inactive) | > 100 µM (inactive) | > 100 µM (inactive) | > 100 µM (inactive) | > 100 µM (inactive) | > 100 µM (inactive) | 21.4 µM (inactive)
3 | Cc1cc(NS(=O)(=O)c2ccc(NO)cc2)no1 |  | 33 µM (inactive) | > 100 µM (inactive) | > 100 µM (inactive) |  | 43 µM (inactive) | > 100 µM (inactive) | 41.1 µM (inactive) |  | > 100 µM (inactive) | > 100 µM (inactive) | > 100 µM (inactive) | > 100 µM (inactive) | > 100 µM (inactive) | 17.9 µM (inactive) | 29.2 µM (inactive) | > 100 µM (inactive) | 20.7 µM (inactive) | > 100 µM (inactive)
4 | C=CCOCn1ccc(NC(=O)c2ccccc2)nc1=O |  | > 100 µM (inactive) |  | > 100 µM (inactive) | > 100 µM (inactive) | > 100 µM (inactive) | > 100 µM (inactive) | > 100 µM (inactive) | > 100 µM (inactive) | > 100 µM (inactive) | > 100 µM (inactive) | > 100 µM (inactive) |  | > 100 µM (inactive) | > 100 µM (inactive) | > 100 µM (inactive) | > 100 µM (inactive) | > 100 µM (inactive) | > 100 µM (inactive)
5 | NNC1=Nc2ccc(Cl)cc2C(=S)N2CSCC12 (stereo not given) | > 100 µM (inactive) | > 100 µM (inactive) |  | > 100 µM (inactive) |  | > 100 µM (inactive) | > 100 µM (inactive) | > 100 µM (inactive) | > 100 µM (inactive) | > 100 µM (inactive) | > 100 µM (inactive) | > 100 µM (inactive) | > 100 µM (inactive) | > 100 µM (inactive) | > 100 µM (inactive) | > 100 µM (inactive) | > 100 µM (inactive) | > 100 µM (inactive) | 
6 | Nc1ccc2nc3n(c2c1)C(c1c(F)cccc1F)SC3 (stereo not given) | > 100 µM (inactive) | > 100 µM (inactive) |  | > 100 µM (inactive) | > 100 µM (inactive) | 38.1 µM (inactive) | > 100 µM (inactive) | > 100 µM (inactive) | > 100 µM (inactive) | 41 µM (inactive) | > 100 µM (inactive) | > 100 µM (inactive) | > 100 µM (inactive) | > 100 µM (inactive) | > 100 µM (inactive) | > 100 µM (inactive) | 89.1 µM (inactive) | > 100 µM (inactive) | 45.3 µM (inactive)
7 | O=C1CCCn2c(nc3ccccc32)N1 | > 100 µM (inactive) | > 100 µM (inactive) | > 100 µM (inactive) | > 100 µM (inactive) | > 100 µM (inactive) | > 100 µM (inactive) | > 100 µM (inactive) | > 100 µM (inactive) | > 100 µM (inactive) | > 100 µM (inactive) |  | > 100 µM (inactive) | > 100 µM (inactive) | > 100 µM (inactive) | > 100 µM (inactive) | > 100 µM (inactive) | > 100 µM (inactive) |  | 
8 | CCOC(=O)C1=COC(C)(c2ccccc2)CC1=O (stereo not given) | > 100 µM (inactive) | > 100 µM (inactive) |  | > 100 µM (inactive) | > 100 µM (inactive) | 49.7 µM (inactive) | > 100 µM (inactive) | > 100 µM (inactive) | > 100 µM (inactive) | > 100 µM (inactive) | > 100 µM (inactive) | > 100 µM (inactive) | > 100 µM (inactive) |  |  | > 100 µM (inactive) | > 100 µM (inactive) | > 100 µM (inactive) | 
9 | CS(=O)(=O)c1ccc(C(=O)O[C@@H]2C(=O)N3CC[C@H]4OC(O)[C@@H]2[C@H]43)cc1 (stereo not given in full) | > 100 µM (inactive) | 60.7 µM (inactive) |  | > 100 µM (inactive) | > 100 µM (inactive) | > 100 µM (inactive) | > 100 µM (inactive) | > 100 µM (inactive) |  | > 100 µM (inactive) | > 100 µM (inactive) | > 100 µM (inactive) | > 100 µM (inactive) |  | > 100 µM (inactive) | > 100 µM (inactive) | > 100 µM (inactive) |  | 
10 | COc1ccc(S(=O)(=O)N/N=C/c2cc(I)cc([N+](=O)[O-])c2O)cc1OC | 32.7 µM (inactive) | 45.9 µM (inactive) | 19.1 µM (inactive) | 32.4 µM (inactive) |  | 24.8 µM (inactive) |  | 53.2 µM (inactive) |  | 19.8 µM (inactive) | 50.6 µM (inactive) | 55 µM (inactive) | > 100 µM (inactive) | 37.7 µM (inactive) | 43.3 µM (inactive) | 47.8 µM (inactive) | 39 µM (inactive) |  | 23 µM (inactive)
11 | CC1(C(=O)O)CCC2(C)CCC3(C)C(=CC(=O)C4C5(C)CCC(O)C(C)(C)C5CCC43C)C2C1 (stereo not given) | 43.1 µM (inactive) | 42.1 µM (inactive) |  | 43.4 µM (inactive) | 21.2 µM (inactive) | 36.2 µM (inactive) |  | 43.8 µM (inactive) | 22.7 µM (inactive) | 24.4 µM (inactive) | 23.1 µM (inactive) |  | 29.6 µM (inactive) |  | 22.6 µM (inactive) | 37.5 µM (inactive) | 33.9 µM (inactive) | 38.7 µM (inactive) | 24.6 µM (inactive)
12 | CC1=NN(C(=O)Cc2ccccc2)C(=O)/C1=C\C=C\c1ccccc1 |  | > 100 µM (inactive) |  |  | > 100 µM (inactive) | > 100 µM (inactive) | > 100 µM (inactive) | > 100 µM (inactive) | > 100 µM (inactive) | > 100 µM (inactive) | > 100 µM (inactive) |  | > 100 µM (inactive) |  | > 100 µM (inactive) | > 100 µM (inactive) | > 100 µM (inactive) |  | > 100 µM (inactive)
13 | Cc1nn(-c2ccccc2)c(C)c1/C=N/NC(=O)c1sc(=S)n(-c2ccccc2)c1N | 4.7 µM (inactive) | 3.78 µM (inactive) |  | 1.45 µM (inactive) | 6.81 µM (inactive) | 5.58 µM (inactive) | 9.84 µM (inactive) | 4.69 µM (inactive) |  | 4.06 µM (inactive) | 4.61 µM (inactive) | 3.08 µM (inactive) | 5.52 µM (inactive) | 0.221 µM (active) | 2.09 µM (inactive) | 45.5 µM (inactive) | 4.9 µM (inactive) | 4.19 µM (inactive) | 20.5 µM (inactive)

Source: ChEMBL document CHEMBL1201862, “PubChem BioAssay data set” (2004)
